One may read the pIC50 as the negative decadic logarithm of the IC50, by convention in mol/L. In general, pKi refers to −log10 of the Ki, conventionally taken in molar units. Low values mean a large Ki, high ones a small Ki.

The record followed here is patent US10399944B2, “Pyridin-2-one derivatives of formula (III) useful as EP3 receptor antagonists” (Janssen Pharmaceutica NV, priority 2017, dated 2019).

SMILES strings stand for the structures. pIC50, pKi: −log10 of the molar value. Some results are limits rather than exact numbers.

For experiment [1], the target named is T1, EP3 receptor (Homo sapiens, UniProt P43115).
T1 sequence (P43115 1-390): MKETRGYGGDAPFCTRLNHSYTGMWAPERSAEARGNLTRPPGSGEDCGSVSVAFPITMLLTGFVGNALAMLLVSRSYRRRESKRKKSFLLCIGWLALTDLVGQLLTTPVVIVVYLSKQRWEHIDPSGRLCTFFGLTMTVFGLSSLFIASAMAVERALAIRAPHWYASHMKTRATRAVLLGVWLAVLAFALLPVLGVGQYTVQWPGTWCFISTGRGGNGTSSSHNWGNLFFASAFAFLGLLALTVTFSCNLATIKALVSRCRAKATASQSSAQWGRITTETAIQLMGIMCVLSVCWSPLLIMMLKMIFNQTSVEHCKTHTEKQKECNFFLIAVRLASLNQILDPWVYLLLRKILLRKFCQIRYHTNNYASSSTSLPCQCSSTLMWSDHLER
Description: CHO cell cAMP assay (forskolin and sulprostone stimulated, HTRF detection). Format: cell-based. The settings on record: sulprostone 700 nM (EC80) and FSK 2 μM (EC70); read-out: CHO_cAMP IC50.

The target in experiment [2] is T1, EP3 receptor. Description: [3H]-PGE2 binding assay (EP3 competition binding, SPA beads).
Another experiment concerns the target T2, mEP3 (Mus musculus, UniProt P30557).
T2 sequence (P30557 1-365): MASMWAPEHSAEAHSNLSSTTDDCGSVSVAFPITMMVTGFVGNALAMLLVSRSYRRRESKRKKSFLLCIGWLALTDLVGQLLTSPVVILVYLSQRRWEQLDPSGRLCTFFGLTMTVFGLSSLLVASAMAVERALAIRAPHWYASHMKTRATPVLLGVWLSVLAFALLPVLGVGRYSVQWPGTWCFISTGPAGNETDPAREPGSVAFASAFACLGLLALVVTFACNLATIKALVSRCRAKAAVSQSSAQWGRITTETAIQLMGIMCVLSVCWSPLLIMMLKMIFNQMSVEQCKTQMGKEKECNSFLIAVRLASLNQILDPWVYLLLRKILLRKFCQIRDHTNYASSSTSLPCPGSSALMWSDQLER
Kind of experiment: mEP3 Ki used for dose targeting in the IVGTT model. Format: binding.

For the next experiment, the system named is male Sprague Dawley rats. Kind of experiment: IV infused EP3 antagonists on circulating insulin and glucose in the sulprostone infusion IVGTT model. The experiment is classed as in vivo, rat. The conditions noted are these: IV bolus plus infusion at 7×Ki and 10×Ki (targeted), with 3 μg/kg/min sulprostone, SD rats. An excerpt:
IV Infused EP3 Antagonists on Circulating Insulin and Glucose in the Sulprostone Infusion IVGTT Model
Jugular vein and carotid artery cannulated male Sprague Dawley rats (˜250 g, available from Charles River) were housed one rat per suspended cage in a temperature-controlled room with 12-hour light/dark cycle. The rats were allowed ad libitum access to water and maintained on a regular diet. Animals were acclimated for minimum 5 days prior to the start of the experiment. Experimental procedures were carried out in accordance with institutional standards for animal care and were approved by the institute's animal care and use committee.
A blood sample for insulin and blood chemistry was collected at 20 min (t=−20) prior to the start of dosing with sulprostone and/or test compound (EP3 antagonist). […]
Blood samples from all animals were collected into Heparin treated tubes. Background was measured via a glucometer at the 0 and 2 min time points to ensure that the animal received the glucose bolus. Plasma insulin was measured via a Meso Scale Discovery metabolic assay (available from Meso Scale). Plasma glucose, free fatty acid (FFA), triglycerides, cholesterol and ketones were measured on an OLYMPUS AU400E chemistry analyzer. Observations on animal health were recorded throughout the procedure. […]

In the case of `O=C1NC(=O)C2(CCCC(c3ccc(-c4ccc5ccccc5c4)[nH]c3=O)C2)O1` (stereo not drawn) [compound 188, anti-7-(6-(naphthalen-2-yl)-2-oxo-1,2-dihydropyridin-3-yl)-1-oxa-3-azaspiro[4.5]decane-2,4-dione], on EP3 receptor [1], the pIC50 was 6.92. On EP3 receptor [2], the pKi was 7.82.
For `CC(C)C(/C=C1\OC(=O)NC1=O)c1ccc(-c2ccc3c(c2)OC(F)(F)O3)[nH]c1=O` (racemic) [Compound #276, (Z)-5-(2-(6-(2,2-difluorobenzo[d][1,3]dioxol-5-yl)-2-oxo-2,3-dihydropyridin-3-yl)-3-methylbutylidene)oxazolidine-2,4-dione], on EP3 receptor [1], the pIC50 is 5.12. Further, on EP3 receptor [2], the pKi is 5.25.
As to `CC(C)C(c1ccc(-c2ccc3cccc(F)c3c2)[nH]c1=O)C1OC(=O)NC1=O` (stereo not drawn) [compound 60], the negative logarithm of the IC50 (pIC50) on EP3 receptor [1] was 7.04. The compound further gave a negative-log Ki (pKi) at EP3 receptor [2] of 7.57.
The matching figures for `CC(C)C(CC1OC(=O)NC1=O)c1ccc(-c2ccc3cccc(F)c3c2)[nH]c1=O` (stereo not drawn) [compound 74]: 7.57 and 8.10.
Turning to `CCN1CCOc2cc(-c3ccc(C(/C=C4\OC(=O)NC4=O)C(C)C)c(=O)[nH]3)ccc21` (stereo not drawn) [Compound #121], the pIC50 on EP3 receptor [1] was 6.44. The compound also showed a pKi at EP3 receptor [2] of 7.14.
Regarding `O=C1NC(=O)[C@]2(CCC[C@H](c3ccc(-c4ccc5ccccc5c4)[nH]c3=O)C2)O1` [Compound #189, Syn-7-(6-(naphthalen-2-yl)-2-oxo-1,2-dihydropyridin-3-yl)-1-oxa-3-azaspiro[4.5]decane-2,4-dione], the pIC50 on EP3 receptor [1] is 6.96. The same compound gave a pKi at EP3 receptor [2] of 7.80.
The matching figures for `CCn1ncc2c(F)cc(-c3ccc(C(/C=C4\OC(=O)NC4=O)C4CCCCC4)c(=O)[nH]3)cc21` (stereo not drawn) [Compound #127, 5-(2-cyclohexyl-2-(6-(1-ethyl-4-fluoro-1H-indazol-6-yl)-2-oxo-1,2-dihydropyridin-3-yl)ethylidene) oxazolidine-2,4-dione]: 6.26 and 7.34.
`CC(C)C(/C=C1\OC(=O)NC1=O)c1ccc(-c2ccc3cccc(F)c3c2)[nH]c1=O` (racemic) [Compound #62, (Z)-5-(2-(6-(8-fluoronaphthalen-2-yl)-2-oxo-1,2-dihydropyridin-3-yl)-3-methylbutylidene)oxazolidine-2,4-dione]: at mEP3, the negative-log Ki (pKi) is 8.07. The “suppression of glucose stimulate insulin secretion (GSIS) by sulprostone” value in the experiment on male Sprague Dawley rats is “reverse suppression of glucose stimulate insulin secretion (GSIS) by sulprostone”.
Regarding `CCn1cc2c(F)c(-c3ccc(C(/C=C4/OC(=O)NC4=O)(CC)CC)c(=O)[nH]3)ccc2n1` [Compound #14], the pIC50 on EP3 receptor [1] is less than 4.70. In addition, on EP3 receptor [2], the pKi was less than 5.00.
`CCn1ncc2c(F)cc(-c3ccc(C(/C=C4\OC(=O)NC4=O)C(C)C)c(=O)[nH]3)cc21` (racemic) [Compound #94, 5-(2-(6-(1-ethyl-4-fluoro-1H-indazol-6-yl)-2-oxo-1,2-dihydropyridin-3-yl)-3-methylbutylidene)-oxazolidine-2,4-dione]: on EP3 receptor [1], the negative-log IC50 (pIC50) was 6.74. Moreover, the negative logarithm of the Ki (pKi) on EP3 receptor [2] is 7.70.
With `CC(C)[C@H](C[C@@H]1OC(=O)NC1=O)c1ccc(-c2ccc3cccc(F)c3c2)[nH]c1=O` (relative stereo) [Compound #81], on EP3 receptor [1], the pIC50 is 7.82. For the same compound, at EP3 receptor [2], the pKi was 8.22.
For `CC(C)C(/C=C1\OC(=O)NC1=O)c1ccc(-c2ccc3c(c2)OCCO3)[nH]c1=O` (racemic) [Compound #85, (Z)-5-(2-(6-(2,3-dihydrobenzo[b][1,4]dioxin-6-yl)-2-oxo-2,3-dihydropyridin-3-yl)-3-methylbutylidene)oxazolidine-2,4-dione], the pIC50 at EP3 receptor [1] is 6.91. At EP3 receptor [2], this compound had a pKi of 7.36.
Take `CCn1ncc2c(F)cc(-c3[nH]c(=O)c(C(/C=C4\OC(=O)NC4=O)C(C)C)cc3Cl)cc21` (racemic) [Compound #125, 5-(2-(5-chloro-6-(1-ethyl-4-fluoro-1H-indazol-6-yl)-2-oxo-1,2-dihydropyridin-3-yl)-3-methylbutylidene) oxazolidine-2,4-dione]: on EP3 receptor [1], the negative-log IC50 (pIC50) was 6.18. The pKi at EP3 receptor [2] is 6.31.
The matching figures for `CC(C)[C@@H](c1ccc(-c2ccc3cccc(F)c3c2)[nH]c1=O)[C@H]1OC(=O)NC1=O` (relative stereo) [Compound #59]: 6.21 and 7.07.
Consider `CC(C)(C)C(/C=C1/OC(=O)NC1=O)C1C=CC(c2ccc3cccc(F)c3c2)=NC1=O` (mixture of isomers) [compound 275, (E)-5-(2-(6-(8-fluoronaphthalen-2-yl)-2-oxo-2,3-dihydropyridin-3-yl)-3,3-dimethylbutylidene)oxazolidine-2,4-dione], for which the negative logarithm of the IC50 (pIC50) on EP3 receptor [1] is less than 4.70.
As to `CC(=C1OC(=O)NC1=O)C(c1ccc(-c2ccc3cccc(F)c3c2)[nH]c1=O)C(C)C` (stereo not drawn) [Compound 96], the negative-log IC50 (pIC50) on EP3 receptor [1] was 7.41. The compound further showed a pKi at EP3 receptor [2] of 7.77.
Consider `CCn1cnc2c(F)c(-c3ccc(C(C=C4OC(=O)NC4=O)C(C)C)c(=O)[nH]3)ccc21` (stereo not drawn) [Compound #90, 5-(2-(6-(1-ethyl-4-fluoro-1H-benzo[d]imidazol-5-yl)-2-oxo-1,2-dihydropyridin-3-yl)-3-methylbutyli-dene)oxazolidine-2,4-dione], for which the pIC50 at EP3 receptor [1] is 5.26. In addition, on EP3 receptor [2], the pKi was 6.20.
Turning to `CC(C)C(/C=C1\OC(=O)NC1=O)c1ccc(-c2ccc3cnsc3c2)[nH]c1=O` (stereo not drawn) [Compound #93], the pIC50 at EP3 receptor [1] is 5.00. The compound further had a pKi at EP3 receptor [2] of 5.97.
For `CCn1ncc2c(F)cc(-c3ccc([C@]4(O)CC[C@H]5C[C@@H]4NC5=O)c(=O)[nH]3)cc21` (stereo in doubt) [Compound #300, 4-(6-(1-ethyl-4-fluoro-1H-indazol-6-yl)-2-oxo-1,2-dihydropyridin-3-yl)-4-hydroxy-6-azabicyclo[3.2.1]octan-7-one], the pKi at EP3 receptor [2] is 8.30.
As for `CC(C)C1(c2ccc(-c3ccc4cccc(F)c4c3)[nH]c2=O)C(=O)Nc2nncn21` (stereo not drawn) [Compound #156], the pIC50 on EP3 receptor [1] was 6.29. This compound also had a pKi at EP3 receptor [2] of 7.24.
For `O=C1NC(=O)/C(=C\C2(c3ccc(-c4ccc5cccc(F)c5c4)[nH]c3=O)CC2)O1` [Compound #11] the same measures were 7.26 and 7.55.
In the case of `CCN1CCOc2ccc(-c3ccc(C(/C=C4\OC(=O)NC4=O)C(C)C)c(=O)[nH]3)cc21` (stereo not drawn) [Compound #137], the negative logarithm of the IC50 (pIC50) at EP3 receptor [1] is 6.66. In addition, the pKi at EP3 receptor [2] was 7.27.
